The record followed here is ChEMBL document CHEMBL1201862, “PubChem BioAssay data set” (2004).

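All cell lines were grown in 96-well plates and treated with compound for 48 hours. GI50 = concentration required for 50% inhibition of growth.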 Calls of active or inactive are those of the source. Rule as the data show it: active = GI50 up to about 1.1 µM and inactive = higher. Where only a bound is given, the exact number is not on record here.

Among the test systems are 786-0; CCRF-CEM; COLO 205; HT-29; Hs-578T; K562; KM12; MDA-MB-231; MDA-N; NCI-H23; NCI-H460; NCI/ADR-RES; OVCAR-5; OVCAR-8; RXF 393; SF-539; SK-MEL-28; SK-MEL-2; SN12C; TK-10.
Holding throughout (assay): NCI tumour cell line growth inhibition, 48 h

With `Cc1ccc2ccccc2c1CSc1nc(N)nc2c1ncn2CC(C)C`, the GI50 was 21.4 µM (inactive) in the assay with 786-0; 6.15 µM (inactive) in the assay on CCRF-CEM; 6.4 µM (inactive) in the assay on COLO 205; 9.14 µM (inactive) with HT-29; > 35.2 µM (inactive) in the assay with Hs-578T; 6.41 µM (inactive) with K562. In addition, the GI50 was 15.2 µM (inactive) in the assay on KM12; > 30.9 µM (inactive) in the assay on MDA-MB-231; 15.7 µM (inactive) in the assay on MDA-N; 24.4 µM (inactive) in the assay on NCI-H23; 14.2 µM (inactive) in the assay on NCI-H460; 21.8 µM (inactive) in the assay on NCI/ADR-RES. Also, the GI50 is 96.2 µM (inactive) in the assay on OVCAR-5; 40.4 µM (inactive) in the assay on OVCAR-8; 10.7 µM (inactive) in the assay on RXF 393; 7.78 µM (inactive) in the assay with SF-539; 55.8 µM (inactive) in the assay on SK-MEL-28; 17 µM (inactive) in the assay on SK-MEL-2. Further, the GI50 in the assay with SN12C is 40 µM (inactive); in the assay on TK-10, 29.6 µM (inactive).
On to `CC[C@@]1(O)C(=O)OCc2c1cc1n(c2=O)Cc2cc3c(NC(=O)CN)cccc3nc2-1`, for which the GI50 in the assay on 786-0 was 0.0612 µM (active); in the assay with CCRF-CEM, < 0.01 µM (active); in the assay with COLO 205 it was 6.1 µM (inactive); in the assay on HT-29, 2.69 µM (inactive); in the assay with Hs-578T, > 36.2 µM (inactive); in the assay on K562 it was 1.37 µM (inactive). In addition, the GI50 with KM12 is 2.96 µM (inactive); with MDA-MB-231, 14.5 µM (inactive); with MDA-N it was 2.1 µM (inactive); in the assay on NCI-H23 it was 0.114 µM (active); in the assay with NCI-H460 it was < 0.0318 µM (active); with NCI/ADR-RES, 0.188 µM (active). The GI50 was 7.8 µM (inactive) with OVCAR-5; 0.392 µM (active) in the assay with OVCAR-8; < 0.0463 µM (active) with RXF 393; < 0.0241 µM (active) in the assay on SF-539; 7.05 µM (inactive) with SK-MEL-28; 3.7 µM (inactive) in the assay on SK-MEL-2. Also, the GI50 was < 0.0115 µM (active) with SN12C and 10.4 µM (inactive) in the assay with TK-10.
For the compound `CSc1c(C#N)c(=O)n(N)c2c1c(C)nn2-c1ccccc1`, the GI50 in the assay on 786-0 is 40.5 µM (inactive); with CCRF-CEM, 19.4 µM (inactive); with COLO 205, 17.3 µM (inactive); in the assay on HT-29, 24.7 µM (inactive); in the assay with Hs-578T, 51.4 µM (inactive); in the assay with K562 it was 31 µM (inactive). In addition, the GI50 is 34.2 µM (inactive) in the assay with KM12; 17.6 µM (inactive) in the assay on MDA-MB-231; 35.6 µM (inactive) in the assay with MDA-N; 18.9 µM (inactive) with NCI-H23; > 100 µM (inactive) with NCI-H460; 24.3 µM (inactive) in the assay with NCI/ADR-RES. Besides, the GI50 in the assay with OVCAR-5 was 24.1 µM (inactive); in the assay with OVCAR-8, 20.8 µM (inactive); in the assay with RXF 393, 18.7 µM (inactive); in the assay on SF-539 it was 19 µM (inactive); in the assay with SK-MEL-28 it was 35.4 µM (inactive); in the assay with SK-MEL-2 it was 19.3 µM (inactive). Moreover, the GI50 with SN12C is 34.4 µM (inactive); with TK-10, 30.1 µM (inactive).
Consider `CC(C)(CCCCC(C)(C)NCC1COc2ccccc2O1)NCC1COc2ccccc2O1` (stereo not given), for which the GI50 in the assay with 786-0 was 3.25 µM (inactive); with CCRF-CEM it was > 10 µM (inactive); in the assay on COLO 205 it was 2.12 µM (inactive); in the assay with HT-29 it was 2.47 µM (inactive); in the assay with Hs-578T it was 5.66 µM (inactive); with K562, > 10 µM (inactive). Also, the GI50 is > 10 µM (inactive) with KM12; 3.54 µM (inactive) in the assay with MDA-MB-231; 2.81 µM (inactive) in the assay with MDA-N; > 10 µM (inactive) in the assay on NCI-H23; > 10 µM (inactive) in the assay on NCI-H460; > 10 µM (inactive) with NCI/ADR-RES. In addition, the GI50 in the assay on OVCAR-5 was > 10 µM (inactive); in the assay on OVCAR-8, > 10 µM (inactive); in the assay with RXF 393, 3.18 µM (inactive); with SF-539 it was 1.85 µM (inactive); with SK-MEL-28 it was 2.16 µM (inactive); with SK-MEL-2, 3.29 µM (inactive). For the same compound, the GI50 with SN12C and with TK-10 was > 10 µM (inactive) throughout.
Consider `CSc1c(C#N)c(N)nc2c(/N=N\c3ccc(Br)cc3)c(N)nn12`, for which the GI50 with 786-0 is 6.17 µM (inactive); in the assay on CCRF-CEM it was 3.12 µM (inactive); in the assay on COLO 205 it was 10 µM (inactive); in the assay on HT-29, 9.53 µM (inactive); in the assay with Hs-578T, 2.37 µM (inactive); in the assay on K562, 2.75 µM (inactive). Besides, the GI50 in the assay with KM12 is 9.02 µM (inactive); in the assay with MDA-MB-231 it was 6.97 µM (inactive); in the assay with MDA-N it was 6.71 µM (inactive); in the assay on NCI-H23, 6.25 µM (inactive); in the assay on NCI-H460 it was 12.8 µM (inactive); in the assay on NCI/ADR-RES, 17.7 µM (inactive). Further, the GI50 in the assay on OVCAR-5 was 16.6 µM (inactive); with OVCAR-8 it was 5.85 µM (inactive); in the assay with RXF 393, 7.57 µM (inactive); with SF-539, 9.18 µM (inactive); in the assay on SK-MEL-28, 10.7 µM (inactive); with SK-MEL-2 it was 4.48 µM (inactive). The GI50 in the assay with SN12C is 6.65 µM (inactive); in the assay on TK-10, 15 µM (inactive).
Regarding `CN(c1ccc(Cl)cc1)S(=O)(=O)c1ccccc1`, the GI50 with 786-0 was > 100 µM (inactive); in the assay on CCRF-CEM, 46.2 µM (inactive); with COLO 205, 47.2 µM (inactive); in the assay on HT-29, 42.3 µM (inactive); with Hs-578T, > 100 µM (inactive); in the assay with K562, 36.8 µM (inactive). Moreover, the GI50 in the assay with KM12 was 40.8 µM (inactive); in the assay on MDA-MB-231, 35.4 µM (inactive); with MDA-N, 64.9 µM (inactive); in the assay on NCI-H23, 30.8 µM (inactive); in the assay with NCI-H460, 43.1 µM (inactive); in the assay with NCI/ADR-RES, 36 µM (inactive). Further, the GI50 in the assay with OVCAR-5 was 52.8 µM (inactive); in the assay on OVCAR-8, 44.6 µM (inactive); with RXF 393, 11.3 µM (inactive); in the assay on SF-539 it was 43 µM (inactive); in the assay with SK-MEL-28 it was 54.8 µM (inactive); in the assay on SK-MEL-2, > 100 µM (inactive). Further, the GI50 with SN12C was > 100 µM (inactive); in the assay on TK-10 it was 65.6 µM (inactive).
In the case of `O=C1CCCC1C(O)(C(F)(F)F)C(F)(F)F` (stereo not given), the GI50 with 786-0, with CCRF-CEM, in the assay on COLO 205, in the assay with HT-29, in the assay with Hs-578T and in the assay with K562 was > 100 µM (inactive) each time. Also, the GI50 in the assay on KM12, in the assay with MDA-MB-231, with MDA-N, with NCI-H23, in the assay on NCI-H460 and in the assay with NCI/ADR-RES was > 100 µM (inactive) throughout. In addition, the GI50 in the assay with OVCAR-5, in the assay with OVCAR-8, in the assay with RXF 393, in the assay on SF-539, in the assay on SK-MEL-28 and with SK-MEL-2 was > 100 µM (inactive) each time. Further, the GI50 with SN12C and with TK-10 was > 100 µM (inactive) each time.
In the case of `COC1=CC(=O)c2c(O)c3c(c(O)c2C1=O)CC(C)(O)OC3` (stereo not given) [FUSARUBIN], the GI50 was 5.51 µM (inactive) in the assay with 786-0; 1.25 µM (inactive) in the assay on CCRF-CEM; 0.897 µM (active) in the assay on COLO 205; 2.12 µM (inactive) in the assay on HT-29; 2.38 µM (inactive) in the assay with Hs-578T; 3.44 µM (inactive) in the assay on K562. Also, the GI50 with KM12 was 3.1 µM (inactive); in the assay with MDA-MB-231, 2.84 µM (inactive); with MDA-N, 1.89 µM (inactive); in the assay on NCI-H23, 2.28 µM (inactive); in the assay on NCI-H460, 1.18 µM (inactive); in the assay with NCI/ADR-RES, 2.56 µM (inactive). The GI50 is 4.46 µM (inactive) in the assay on OVCAR-5; 2.34 µM (inactive) in the assay on OVCAR-8; 4.17 µM (inactive) in the assay with RXF 393; 3.33 µM (inactive) in the assay with SF-539; 6.11 µM (inactive) with SK-MEL-28; 1.95 µM (inactive) in the assay on SK-MEL-2. The values for the GI50 in the assay with SN12C and with TK-10 were 3.61 µM (inactive) and 10.6 µM (inactive), respectively.
